Assay results: patent publication US20060089318A1, “Inhibitors of adp-ribosyl transferases, cyclases, and hydrolases” (priority 2002, published 2006)
Like-named read-outs stand apart in the source and are kept apart here.

How the values were obtained:
[1] = biological target: T1, human CD38 (Homo sapiens, UniProt P28907); assay: Competitive and slow-onset inhibition of CD38-catalyzed conversion of NGD+ to cGDPR (295 nm absorbance); format: biochemical; design: The soluble domain of human CD38 catalyzes the conversion of NAD^+ to cyclic-ADP-ribose; conditions: for Inhibition of CD38 conversion of NGD+ to cGDPR: even at millimolar concentrations of compound; for Ki: 19° C.
T1 sequence (P28907 43-300 limits assumed): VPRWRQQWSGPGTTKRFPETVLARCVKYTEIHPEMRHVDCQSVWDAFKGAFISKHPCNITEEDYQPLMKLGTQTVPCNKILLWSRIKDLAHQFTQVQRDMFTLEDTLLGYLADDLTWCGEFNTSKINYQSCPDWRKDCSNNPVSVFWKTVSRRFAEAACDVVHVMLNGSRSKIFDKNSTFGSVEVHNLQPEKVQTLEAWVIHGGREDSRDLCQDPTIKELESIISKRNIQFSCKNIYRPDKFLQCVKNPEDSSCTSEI
Experimental: Determination of Ki and kon by competitive method. To 1 mL solutions of 50 mM potassium phosphate pH 7.2 and 100 μM NGD^+ containing, 50, 25, 12.5, and 6.25 and 0 μM inhibitor 1 was added 2 μL of 7 μM CD38. Reaction progress upon initiation by enzyme addition was monitored by measurement of […] absorbance. The initial slopes were used to determine the Ki value, and all points of the experiment were fit to the equation A(t)=vt+(b−v)(1−exp(−kt))/k+A0 where k is the observed rate constant, b is the initial rate, v is the final rate and A0 is the initial absorbance was used to evaluate kon.
Determination of Competitive Inhibition by Initial Rates: The inhibitors 1-3 were evaluated for inhibition of CD38 enzymatic activity using a spectrophotometric assay. CD38 catalyzes the conversion of NGD^+ to cyclic-GDP ribose (cGDPR, Scheme 4) and product formation can be monitored by 295 nm absorbance measurement. […] A similar reaction containing 40 μM NGD^+ at several concentrations of 2 was also performed (FIG. 3).
Slow Phase Inhibition. […] This slow phase was not due to substrate depletion and was attributable to a kinetic process leading to progressive inhibition of the enzyme. The “slow-onset” absorbance curves could be fit using the equation At=vit+(vi−vf)(1−exp(−kt))/k+A0 where At is absorbance, vi is initial velocity, vf is final velocity, t is time in s, k is the rate of the slow onset process and A0 is absorbance of the sample at initial time. These fits are shown by the solid lines in FIG. 2 and FIG. 3. The rate constant for the slow phase could be obtained from the average value of k determined from the separate fits. The value of k for 1 was determined to be 0.0042±0.001 s^−1 and the value of k for 2 was determined to be 0.0083±0.002 s^−1. The parameter k is defined as kon in Scheme 5. [drawing 22]
Calculation of Total Inhibition. […] This equation is valid for slow onset behavior inhibitors and also mechanistic based inactivators of enzymes where a slow recovery of the enzyme from chemical inactivation is present.

[2] = biological target: T2, CD38 (Homo sapiens, UniProt P28907); conditions: comparison values for substrates; read-out: Km of substrate for CD38; cited from earlier work
T2 sequence (P28907 45-300 limits assumed): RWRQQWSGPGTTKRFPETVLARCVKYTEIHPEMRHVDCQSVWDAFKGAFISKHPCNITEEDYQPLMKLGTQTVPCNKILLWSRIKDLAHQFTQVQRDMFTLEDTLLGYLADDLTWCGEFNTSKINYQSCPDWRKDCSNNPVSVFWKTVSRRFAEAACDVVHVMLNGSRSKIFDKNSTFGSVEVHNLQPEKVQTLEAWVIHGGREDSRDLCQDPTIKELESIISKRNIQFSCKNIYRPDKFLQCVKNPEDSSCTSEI

[3] = biological target: T1, human CD38; assay: Off-rate measurement: recovery of inhibited CD38 in excess NGD+; format: biochemical; design: The soluble domain of human CD38 catalyzes the conversion of NAD^+ to cyclic-ADP-ribose; conditions: 19° C.
Experimental: Off-Rate Measurement. 500 nM CD38 in 50 mM potassium phosphate pH 7.2 was incubated with 15 μM inhibitor for 30 min at room temperature. 5 μL of the enzyme inhibitor solution was added to a cuvette containing 1 mL reaction of 50 mM potassium phosphate pH 7.5 containing 300 μM NGD^+ pre-chilled to 19° C. Production of […] was determined by monitoring […] absorbance. The absorbance was fit to the equation A(t)=vt+(b−v) (1−exp(−kt))k+A0 where A(t) is the absorbance, k is the rate constant of recovery, b is the initial rate, v is the final rate and A0 is the initial absorbance. A control lacking inhibitor but in all other respects identical was also run.
Recovery from Inhibition. […] The solution 295 nm absorbance is monitored spectrophotometrically to assay conversion of NGD^+ to cGDPR as a consequence of regain of CD38 catlytic activity. […] The absorbance curves with the same equation used for slow-onset: At=vit+(vi−vf)(1−exp(−kt))/k+A0 where At is absorbance, vi is initial velocity, vf is final velocity, t is time in s, k is the rate of the recovery rate constant and A0 is the absorbance of the sample at initial time. The rate constant for the recovery phase was obtained from the average value of k determined from the separate fits. The value of koff for 1 was determined to be 1.5×10^−5 s^−1 and for 2 was determined to be 2.5×10^−5 s^−1.

[4] = Solution hydrolysis (chemical stability); format: physicochemical
Text: Without being bound to any particular mechanism, it is believed that the electron-contributing moiety on A stabilizes the compounds of the invention such that they are less susceptible to hydrolysis from the rest of the compound. For example, the compound β-1′-5-methyl-nicotinamide-2′-deoxyribose (established as an effective inhibitor of CD38 in Example 1) was compared with β-1′-nicotinamide-2′-deoxyribose in its ability to resist solution hydrolysis. […] This difference in chemical stability means that β-1′-nicotinamide-2′-deoxyribose is 50% depleted from solution in 2 hours, whereas β-1′-5-methyl-nicotinamide-2′-deoxyribose is not hydrolyzed by 50% until 12 hours. This improved chemical stability improves the value of the compound, since it is available for action for longer periods of time in biological systems due to resistance to hydrolytic breakdown.

[5] = biological target: T1, human CD38; assay: Radiochemical measurement of inhibitor binding (labeling of CD38 by [2'-3H] inhibitor, gel filtration and scintillation counting); design: The soluble domain of human CD38 catalyzes the conversion of NAD^+ to cyclic-ADP-ribose; conditions: 25° C.; 9 μM inhibitor, 1.2 μM CD38 monomer
Experimental: Radiochemical measurement of inhibitor binding. […] Inhibitor at 9 μM with specific radioactivity of 866 cpm/nmol, was incubated with 1.2 μM CD38 (monomer) in 1 mL 50 mM potassium phosphate (pH 7.5). The reactions were started by enzyme addition and quenched by freezing with a dry ice/acetone bath at 30, 60 90, 120, 250, 500, and 1000 s. Cooled (0° C.) gel filtration columns were used to separate protein with cooled (0° C.) 10 mM potassium phosphate as eluant. The frozen fraction were quickly thawed, applied to these columns and fractions collected in 1 mL volumes over the course of several minutes. Scintillation fluid (9 mL) was then added to each 1 mL fraction and samples counted. […] The observed radioactivity was fit using the equation A(t)=A0(1−exp(−kt))+B. where A0 is activity at reaction completion, k is the observed pseudo-first order rate constant and B is the activity of the blank.
Titration of Enzyme with [2′-^3H]Inhibitor. CD38 inactivation was accomplished using a radiolabeled inhibitor to assess inhibitor interactions with the enzyme independent from inhibition of the catalytic activity. This method allows the determination of the stoichiometry of covalent labeling, and detects cooperativity at multiple sites. […] (FIG. 8) within reasonable agreement with the rate constant for inactivation in kinetic assays of inhibition (kon=0.0042 s^−1 at 19° C.). […]

[6] = biological target: T1, human CD38; conditions: read-out: Apparent Km for nicotinamide rescue of CD38 activity; CD38 preinhibited by 2
Experimental: 10 mL CD38 (1 μM) in K2PO4H was incubated with 2 (10 μM) for 30 minutes at room temperature and subsequently placed on ice. […] To a two syringe Applied Photophysics spectrophotometer in fluorescence mode was added inhibited enzyme to one syringe and NGD^+ solution to the other. Fluorescence was used to monitor cGDPR formation and the total fluorescence curves fit using the activity recovery equation. F(t)=vt+(b−v)(1−exp(−kt))/k+F0 where k is the observed rate constant, b is the initial rate, v is the final rate and F0 is the initial absorbance.
A stopped flow, two syringe fitted spectrophotometer was used to perform the experiments. The fluorescence of cGDPR was measured as a function of time to generate curves that contain an exponential and a linear phase prior to substrate exhaustion. These curves were fit to the equation Ft=vft+(vi−vf)(1−exp(−kt))/k+F0 as previously defined.

[7] = biological target: T1, human CD38; assay: CD38-catalyzed base-exchange reaction of 2 with nicotinamide to form 1 (HPLC); format: biochemical; design: The soluble domain of human CD38 catalyzes the conversion of NAD^+ to cyclic-ADP-ribose
Experimental: Base-exchange reaction. […] These reactions were run separately in autosampler tubes held at 19° C. in a temperature regulated autosampler and assayed by multiinjection HPLC using 5 mM K2PO4H pH 5.0 and 2.5% MeOH as eluant. The quantity of 2 reacted and the quantity of 1 formed versus time was determined by integrations of the peaks for 1 and 2 with comparison to standards.

[8] = biological target: T2, CD38; conditions: read-out: Apparent Km for nicotinamide rescue; CD38 inactivated by ara-F-NMN+; cited from earlier work
[9] = biological target: CD38; conditions: literature values (Sauve et al., 2000; Muller-Steffner et al., 1992); cited from earlier work
[10] = 10 mM potassium phosphate, pH 6.5, 25° C.
[11] = 100 μM NGD+ for 1, 40 μM NGD+ for 2, 50 mM potassium phosphate pH 7.2, read-out: Ki (competitive inhibition, from initial rates)
[12] = calculated from the kinetic parameters, read-out: Ki(total) = (koff/kon)*Ki, effective dissociation constant

Cc1cc(C(N)=O)c[n+](C2CC(O)C(CO)O2)c1 (single isomer, unassigned) [α isomer of 2]
Inhibition of CD38 conversion of NGD+ to cGDPR [1]: did not inhibit

NC(=O)c1ccc[n+]([C@@H]2O[C@H](COP(=O)(O)O)[C@@H](O)[C@H]2O)c1 [NMN^+]
Km [2]: 150 µM

NC(=O)c1ccc[n+]([C@H]2C[C@H](O)[C@@H](CO)O2)c1 [inhibitor 1, β-nicotinamide-2′-deoxyriboside]
koff (rate constant of recovery from inhibition) [3]: ~2e-05 s⁻¹
Rate constant for solution hydrolysis [4, 10]: 9.6e-05 s⁻¹
Time to 50% depletion from solution by hydrolysis [4]: 2 h
Rate constant of radiochemical labeling of CD38 (kchem) [5]: 0.01 s⁻¹
Ki [1, 11]: 1.2 µM
Ki [1, 12]: 0.0045 µM

NC(=O)c1ccc[n+]([C@@H]2O[C@H](COP(=O)([O-])OP(=O)(O)OC[C@H]3O[C@@H](n4cnc5c(N)ncnc54)[C@H](O)[C@@H]3O)[C@@H](O)[C@H]2O)c1 [NAD^+, nicotinamide adenine dinucleotide]
Km [2]: 15 µM

[3H]C1[C@H]([n+]2cccc(C(N)=O)c2)O[C@H](CO)[C@H]1O (stereo partly shown) [[2-^3H]-1, [2′-^3H]Nicotinamide deoxyriboside]
Rate constant of radiochemical labeling of CD38 (kchem) [5]: 0.01 s⁻¹

NC(=O)c1ccc[n+]([C@@H]2O[C@H](COP(=O)([O-])OP(=O)(O)OC[C@H]3O[C@@H](n4cnc5c(=O)[nH]c(N)nc54)[C@H](O)[C@@H]3O)[C@@H](O)[C@H]2O)c1 [NGD^+, nicotiramide guanine dinucleotide]
Km [2]: 2.5 µM

NC(=O)c1cccnc1 [nicotinamide]
Km [6]: 2400 µM
Km ([7]; read-out: Km of nicotinamide for steady state base exchange, 75 μM 2, 1 μM CD38, 19° C.): 920 µM
Km [8]: 17000 µM

Cc1cc(C(N)=O)c[n+]([C@H]2C[C@H](O)[C@@H](CO)O2)c1 [inhibitor 2, β-5-methyl-nicotinamide-2′-deoxyriboside]
koff (rate constant of recovery from inhibition) [3]: ~2e-05 s⁻¹
kcat of base exchange (2 to 1) ([7]; 75 μM 2, 1 μM CD38, nicotinamide 0-40 mM, 19° C.): 0.007 s⁻¹
Decrease in the rate of hydrolysis versus β-1′-nicotinamide-2′-deoxyribose (factor) [4, 10]: 6
Rate constant for solution hydrolysis [4, 10]: 1.5e-05 s⁻¹
Time to 50% depletion from solution by hydrolysis [4]: 12 h
Ki [1, 11]: 4 ± 0.5 µM
Ki [1, 12]: 0.0125 µM

OC[C@H]1O[C@@H]([n+]2ccccc2)C[C@@H]1O [inhibitor 3, β-pyridyl-deoxyriboside]
Inhibition of CD38 conversion of NGD+ to cGDPR [1]: did not inhibit

NC(=O)c1ccc[n+]([C@@H]2O[C@H](COP(=O)([O-])OP(=O)(O)OC[C@H]3O[C@@H](n4cnc5c(N)ncnc54)[C@H](O)[C@@H]3O)[C@@H](O)[C@H]2F)c1 [ara-F-NAD^+]
Ki [9]: 0.169 µM

NC(=O)c1ccc[n+]([C@@H]2O[C@H](COP(=O)(O)O)C(O)C2F)c1 (stereo partly shown) [ara-F-NMN^+]
Ki [9]: 0.061 µM

NC(=O)c1ccc[n+](C2CC(O)C(CO)O2)c1 (single isomer, unassigned) [α isomer of 1]
Inhibition of CD38 conversion of NGD+ to cGDPR [1]: did not inhibit
